Results: US20220267308A1, “Modulators of Excitatory Amino Acid Transporters and Methods Using Same” (The Wistar Institute of Anatomy and Biology, priority 2019, published 2022)
Read-outs that look alike come from different tables or passages of the source.

Legend:
[1] = system: cortical neurons; test: neuroprotection in neuronal cultures, bi-laminar approach, L-glutamate insult; type: cell-based; conditions: 10 μM L-glutamate for 24 h
Experimental: (§1) Top: Representative images (40× magnification) of 14 DIV cortical neurons in control conditions (FIG. 2A) or subjected to insult with 10 μM L-glutamate for 24 h (FIG. 2B). […] Bottom: Representative images of cortical neurons in control conditions (FIG. 2D) or subjected to insult with OGD for 20 min (FIG. 2E). […] Quantification performed 24 h after treatments in cultures stained for MAP-2 (green) and DAPI (blue). Surviving neurons were estimated by blind counting of 10 fields/coverslips, averages of triplicate determinations±SD (ANOVA followed by Dunnet's posthoc test, *p<0.05, **<0.01, p***<0.001, compared to control, #p<0.05, ###p<0.001, compared to insult).

[2] = system: cortical neurons; test: neuroprotection in neuronal cultures, bi-laminar approach, OGD insult; type: cell-based; conditions: OGD for 20 min
Experimental: as §1

[3] = biological target: T1, EAAT2 (Homo sapiens, UniProt P43004); test: kinetic analysis of L-glutamate uptake in EAAT2-transfected COS-7 cells; type: cell-based; design: expressed in transfected cells; host or cells: COS-7; conditions: compound 10 nM, different concentrations of glutamate
[4] = pilocarpine in vivo model of epilepsy; conditions: osmotic pump 48 hours, final dose 4 mg/Kg, after pilocarpine 380 mg/Kg; p=0.0189
[5] = biological target: T1, EAAT2; test: glutamate uptake mediated by EAAT2-expressing COS-7 cells; conditions: for EAAT2 Efficacy: bottom number of the cell
[6] = biological target: T2, EAAT1 (Homo sapiens, UniProt P43003); test: glutamate uptake mediated by EAAT1-expressing COS-7 cells; type: cell-based; conditions: for EAAT1 Efficacy: bottom number of the cell
T2 construct: expressed in transfected cells; host or cells: COS-7

[7] = biological target: T3, EAAT3 (Homo sapiens, UniProt P43005); test: glutamate uptake mediated by EAAT3-expressing COS-7 cells; type: cell-based; conditions: for EAAT3 EC50 (nM): top number of the cell
T3 construct: expressed in transfected cells; host or cells: COS-7
T3 sequence (P43005 1-524): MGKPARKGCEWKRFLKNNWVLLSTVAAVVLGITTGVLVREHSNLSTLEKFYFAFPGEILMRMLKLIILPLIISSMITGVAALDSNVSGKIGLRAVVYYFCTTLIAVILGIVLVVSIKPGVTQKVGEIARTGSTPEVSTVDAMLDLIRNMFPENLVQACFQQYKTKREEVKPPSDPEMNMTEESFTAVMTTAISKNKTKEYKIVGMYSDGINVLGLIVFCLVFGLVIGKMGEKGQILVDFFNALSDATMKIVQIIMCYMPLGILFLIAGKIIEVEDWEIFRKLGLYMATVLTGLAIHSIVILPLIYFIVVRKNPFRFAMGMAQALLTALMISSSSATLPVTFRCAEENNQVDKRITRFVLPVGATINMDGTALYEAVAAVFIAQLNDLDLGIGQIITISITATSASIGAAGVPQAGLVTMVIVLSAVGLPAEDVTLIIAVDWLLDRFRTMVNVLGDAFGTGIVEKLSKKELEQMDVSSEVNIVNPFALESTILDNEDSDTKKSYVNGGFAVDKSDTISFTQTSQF

[8] = SNL (spinal nerve ligation) model; conditions: p<0.01 compared to vehicle
[9] = system: neuron-glia cultures; test: neuroprotection in mixed neuron-glia cultures; type: cell-based, rat
Text: Immunostaining against neuronal marker MAP-2 (green), glial maker GFAP (red), and nuclear marker DAPI (blue). Surviving neurons were estimated by blind counting of 10 fields/coverslips, averages of triplicate determinations±SD (ANOVA followed by Dunnet's posthoc test, ***p<0.001, compared to control, ###p<0.001, compared to insult). FIGS. 7A-7E show the in vitro neuroprotective properties of second and third generation compounds after glutamate and oxygen glucose deprivation insults in mixed neuron/glia cultures. […] Immunostaining against neuronal marker MAP-2 (green), glial maker GFAP (red), and nuclear marker DAPI (blue). Images taken with 30× magnification with a confocal microscope.

[10] = system: glia cells; conditions: for Km / Vmax: Glia

T1 sequence (P43004 whole entry, the tested form may be a part): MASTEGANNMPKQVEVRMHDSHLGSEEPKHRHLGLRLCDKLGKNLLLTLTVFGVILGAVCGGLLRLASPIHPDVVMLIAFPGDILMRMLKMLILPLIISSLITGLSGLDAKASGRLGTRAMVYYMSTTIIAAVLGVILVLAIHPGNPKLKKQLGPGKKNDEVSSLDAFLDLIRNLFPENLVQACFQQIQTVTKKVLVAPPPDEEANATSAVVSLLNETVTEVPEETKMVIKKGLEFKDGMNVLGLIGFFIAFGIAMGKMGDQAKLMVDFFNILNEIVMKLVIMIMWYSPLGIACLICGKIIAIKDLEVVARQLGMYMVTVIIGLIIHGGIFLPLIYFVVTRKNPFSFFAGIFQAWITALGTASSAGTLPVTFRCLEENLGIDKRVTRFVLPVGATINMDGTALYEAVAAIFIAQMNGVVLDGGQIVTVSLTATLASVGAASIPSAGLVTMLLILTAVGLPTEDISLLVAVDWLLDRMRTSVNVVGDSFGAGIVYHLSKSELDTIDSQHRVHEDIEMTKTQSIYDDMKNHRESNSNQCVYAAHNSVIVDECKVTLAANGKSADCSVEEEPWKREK
T2 sequence (P43003 whole entry, the tested form may be a part): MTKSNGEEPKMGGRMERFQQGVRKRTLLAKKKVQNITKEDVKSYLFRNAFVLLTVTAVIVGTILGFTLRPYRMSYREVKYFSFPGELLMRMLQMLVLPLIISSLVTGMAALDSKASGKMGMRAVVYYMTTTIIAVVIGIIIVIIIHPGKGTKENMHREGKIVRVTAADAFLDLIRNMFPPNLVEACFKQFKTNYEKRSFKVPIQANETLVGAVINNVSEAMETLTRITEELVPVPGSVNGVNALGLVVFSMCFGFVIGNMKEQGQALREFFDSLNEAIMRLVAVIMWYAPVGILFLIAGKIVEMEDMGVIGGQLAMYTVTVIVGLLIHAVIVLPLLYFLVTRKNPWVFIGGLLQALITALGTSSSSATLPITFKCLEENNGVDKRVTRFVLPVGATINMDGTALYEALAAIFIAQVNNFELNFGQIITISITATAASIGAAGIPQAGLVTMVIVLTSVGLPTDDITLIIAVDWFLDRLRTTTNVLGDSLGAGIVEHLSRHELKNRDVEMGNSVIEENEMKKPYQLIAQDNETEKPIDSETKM

NC(CCCP(=O)(O)O)C(=O)O (racemic) [APV, (DL)-2-amino-5-phosphonovaleric acid, reference compound]
cell death / surviving neurons ([1]; compound 100 μM): attenuate cell death
cell death / surviving neurons ([2]; compound 100 μM): attenuated cell death

CN1CCN(C(c2cccnc2)c2nnnn2CCc2ccccc2)CC1 (centres unmarked) [DA-023, 1-methyl-4-((1-phenethyl-1H-tetrazol-5-yl)(pyridin-3-yl)methyl)piperazine]
effect on KM (affinity for the substrate) [3]: no effect on KM
effect on Vmax (in words) [3]: increase in Vmax
neuronal death (FJC+ cell numbers) in the hilus [4]: significant reduction in the neuronal death
potency on transport augmentation (dose response curve) ([5]; EAAT2-expressing COS-7 cells): nM range
efficacy on transport augmentation ([5]; EAAT2-expressing COS-7 cells, dose response curve): < 150%
cell death / surviving neurons ([1]; compound 10 nM): attenuate cell death
cell death / surviving neurons ([2]; compound 100 nM): attenuated cell death

COc1ccc(C(c2nnnn2CCc2ccccc2)N2CCN(C3CCCCC3)CC2)cc1OC (centres unmarked) [DA-050, 1-cyclohexyl-4-((3,4-dimethoxyphenyl)(1-phenethyl-1H-tetrazol-5-yl)methyl)piperazine]
EC50 [5]: 0.5 ± 0.56 nM
EAAT2 Efficacy [5]: 261.50 ± 40.30%
EAAT1 Efficacy [6]: 150.00 ± 21.21%
EC50 ([6]; top number of the cell): 46 ± 36.8 nM
EAAT3 EC50 (nM) [7]: No Effect

CN1CCN(C(c2ccncc2)c2nnnn2CCc2ccccc2)CC1 (centres unmarked) [DA-058, 1-methyl-4-((1-phenethyl-1H-tetrazol-5-yl)(pyridin-4-yl)methyl)piperazine]
EC50 [5]: 0.4 ± 0.42 nM
EAAT2 Efficacy [5]: 200.50 ± 58.60%
EAAT1 Efficacy [6]: 186.0 ± 41.01%
EC50 ([6]; top number of the cell): 2.24 ± 1.07 nM
EAAT3 EC50 (nM) [7]: No Effect

COc1ccc2[nH]c(=O)c(C(c3nnnn3CCc3ccccc3)N3CCN(C4CCCCC4)CC3)cc2c1 (centres unmarked) [GT949]
cell death / surviving neurons ([1]; compound 10 nM): attenuate cell death

NCC1(CC(=O)O)CCCCC1 [Gabapentin, reference compound]
analgesic response ([8]; 200 mg/kg): analgesic response

CN1CCN(C(C(=O)NCCc2ccc(F)cc2)c2cccnc2)CC1 (centres unmarked) [NA-005, N-(4-fluorophenethyl)-2-(4-methylpiperazin-1-yl)-2-(pyridin-3-yl)acetamide]
EAAT1 Efficacy [6]: 189 ± 9.89%

CN1CCN(C(C(=O)NCCc2ccc(F)cc2)c2ccc(C#N)cc2)CC1 (centres unmarked) [NA-014, 2-(4-cyanophenyl)-N-(4-fluorophenethyl)-2-(4-methylpiperazin-1-yl)acetamide]
neuronal survival ([9]; 100 μM L-glutamate for 24 h, co-treatment with 100 nM compound): neuroprotective effect
neuronal survival with co-application of EAAT inhibitor TBOA ([9]; L-glutamate insult, compound plus TBOA): abolished by co-application of EAAT inhibitor TBOA
analgesic response ([8]; 10 mg/kg): analgesic response
EAAT1 EC50 (nM) ([6]; top number of the cell): No Effect
Km ([10]; NA-014 100 nM): 52.5 ± 5.82 µM
Vmax ([10]; NA-014 100 nM): 42.35 ± 1.44 pmol/well/min
Km ([10]; NA-014 500 nM): 49.8 ± 8.3 µM
Vmax ([10]; NA-014 500 nM): 72.76 ± 3.67 pmol/well/min
KM versus vehicle (in words) ([10]; cultured glia cells pre-incubated with 100 nM and 500 nM): not statistically different
EAAT3 EC50 (nM) [7]: No Effect

CN1CCN(C(c2ccc(F)nc2)c2nnnn2CCc2ccccc2)CC1 (centres unmarked) [VY-3-285, 1-((6-fluoropyridin-3-yl)(1-phenethyl-1H-tetrazol-5-yl)methyl)-4-methylpiperazine]
EAAT1 Efficacy [6]: 2.75 ± 3.18 222 ± 55.72%

CN1CCN(C(c2ccc(O)nc2)c2nnnn2CCc2ccccc2)CC1 (centres unmarked) [VY-3-286, 5-((4-methylpiperazin-1-yl)(1-phenethyl-1H-tetrazol-5-yl)methyl)pyridin-2-ol]
EAAT1 Efficacy [6]: 160.25 ± 27.22%
EAAT3 Efficacy ([7]; bottom number of the cell): 130.50 ± 2.12%
